Test systems include HOP-62 NSCLC; 786-0 renal; NCI-H522 lung; A549 NSCLC; SF-539 CNS; RXF 393 renal; LOX IMVI melanoma; TK-10 renal; OVCAR-4 ovarian.
Assay in all cases: NCI-60 cell line screen, 48 h

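In this assay, cells in 96-well plates receive the compound at five concentrations for 48 hours. Endpoints are linearly interpolated between the surrounding concentrations. The concentration for 50% growth inhibition is given as GI50. The concentration for full growth arrest is given as TGI.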 A value given as a limit tells only on which side of the number the result lay.

As for `COC(=O)CC(=O)C[P+](c1ccccc1)(c1ccccc1)c1ccccc1`, the TGI was more than 218 µM in the assay with HOP-62 NSCLC; more than 218 µM in the assay with 786-0 renal; 86.8 µM in the assay on NCI-H522 lung; more than 218 µM in the assay with A549 NSCLC; more than 218 µM in the assay with SF-539 CNS; more than 218 µM in the assay on RXF 393 renal. Also, the TGI in the assay on LOX IMVI melanoma and in the assay on TK-10 renal was more than 218 µM each time.

In the case of `COc1ccccc1C1C(C(=O)Nc2ccccc2)=C(C)NC(C)=C1C(=O)Nc1ccccc1`, the TGI in the assay on OVCAR-4 ovarian, in the assay with HOP-62 NSCLC, in the assay with 786-0 renal, with NCI-H522 lung, in the assay with SF-539 CNS and with RXF 393 renal was more than 100 µM each time. The TGI in the assay on LOX IMVI melanoma and in the assay on TK-10 renal was more than 100 µM each time.

For the compound `CCOC(=O)NC(=O)c1cn(C2OC(COC(=O)CCCCCCCCC(=O)OCC3OC(n4cc(C(=O)NC(=O)OCC)c(=O)[nH]c4=O)C(O)C3O)C(O)C2O)c(=O)[nH]c1=O` (configuration not stated), the TGI in the assay with OVCAR-4 ovarian, with HOP-62 NSCLC, in the assay on 786-0 renal, with A549 NSCLC, in the assay with SF-539 CNS and in the assay with RXF 393 renal was more than 100 µM throughout. In addition, the TGI with LOX IMVI melanoma and in the assay on TK-10 renal was more than 100 µM each time.

As for `Cc1nc2c(nc1Cl)nc(Oc1ccc(Cl)cc1)c1ccccc12`, the TGI was more than 100 µM with OVCAR-4 ovarian; 84.1 µM in the assay on HOP-62 NSCLC; 38.3 µM in the assay with 786-0 renal; more than 100 µM in the assay with NCI-H522 lung; more than 100 µM in the assay on A549 NSCLC; more than 100 µM in the assay with SF-539 CNS. The compound further gave a TGI in the assay on LOX IMVI melanoma of more than 100 µM.

As to `CCCCCCCCCCCC(=O)CC(=O)c1c(O)cccc1O`, the TGI in the assay with OVCAR-4 ovarian turned out to be 34.1 µM; with HOP-62 NSCLC, 48.9 µM; in the assay on 786-0 renal, 39.4 µM; in the assay on NCI-H522 lung, 65.3 µM; in the assay on A549 NSCLC, 33.1 µM; with SF-539 CNS it was 35.5 µM. Moreover, the TGI is 34.5 µM in the assay on RXF 393 renal, 32 µM with LOX IMVI melanoma and 57.5 µM with TK-10 renal.

On to `COc1ccc(CNc2cc(OC)c(OC)c(OC)c2)cc1`, for which the TGI is 85.1 µM with OVCAR-4 ovarian; more than 71.5 µM in the assay with HOP-62 NSCLC; more than 100 µM with 786-0 renal; 31 µM in the assay on NCI-H522 lung; more than 100 µM in the assay with A549 NSCLC; 35.1 µM with SF-539 CNS. For the same compound, the results for the TGI with RXF 393 renal, in the assay on LOX IMVI melanoma and in the assay on TK-10 renal were 23 µM, more than 100 µM and more than 100 µM, respectively.

As for `COc1ccc(OC)c(NC(=O)C(=O)C(C(C)=O)c2nc3ccc(Cl)cc3[nH]c2=O)c1` (configuration not stated), the TGI in the assay on OVCAR-4 ovarian, with HOP-62 NSCLC, in the assay with 786-0 renal, with A549 NSCLC, with SF-539 CNS and in the assay with RXF 393 renal was more than 50 µM throughout. The TGI in the assay with LOX IMVI melanoma and in the assay with TK-10 renal was more than 50 µM in each case.

For the compound `CCCCCCCCCCCCCC(=O)OC1CC(=O)OC1CO` (configuration not stated), the TGI with OVCAR-4 ovarian, in the assay with HOP-62 NSCLC, in the assay with 786-0 renal, in the assay with A549 NSCLC, in the assay on SF-539 CNS and with RXF 393 renal was more than 100 µM each time. The TGI was 73.5 µM in the assay on LOX IMVI melanoma and more than 100 µM with TK-10 renal.

On to `N#CC1(Cc2ccc(N)cc2)c2ccccc2C=CN1C(=O)c1ccccc1` (configuration not stated), for which the TGI in the assay with HOP-62 NSCLC, with 786-0 renal, with NCI-H522 lung, in the assay with A549 NSCLC, in the assay with SF-539 CNS and in the assay on RXF 393 renal was more than 100 µM in each case. Also, the TGI in the assay on LOX IMVI melanoma and with TK-10 renal was more than 100 µM in each case.

Consider `O=C(CI)NC1Oc2ccccc2-c2oc(=O)c(-c3ccccc3)cc21` (configuration not stated), for which the GI50 was 1.87 µM in the assay on HOP-62 NSCLC; 0.441 µM in the assay on 786-0 renal; 2.36 µM with A549 NSCLC; 1.73 µM with SF-539 CNS; 1.5 µM in the assay with RXF 393 renal; 0.307 µM in the assay with LOX IMVI melanoma. Further, the GI50 in the assay on TK-10 renal was 1.71 µM. The TGI with HOP-62 NSCLC was found to be 3.81 µM; with 786-0 renal it was 1.58 µM; with A549 NSCLC it was 6.16 µM; with SF-539 CNS, 3.13 µM; in the assay with RXF 393 renal, 3 µM; in the assay on LOX IMVI melanoma it was 1.07 µM. This compound had a TGI in the assay with TK-10 renal of 3.13 µM.

For the compound `OCc1ccc2[n+](c1)CCC1c3ccccc3NC21` (configuration not stated), the TGI in the assay with HOP-62 NSCLC, in the assay with 786-0 renal, in the assay with NCI-H522 lung, with A549 NSCLC, in the assay on SF-539 CNS and in the assay on RXF 393 renal was more than 300 µM each time. The TGI in the assay on LOX IMVI melanoma and with TK-10 renal was more than 300 µM throughout.

`N=C1CSC2=NC3=C(CCC/C3=C\c3ccccc3)C(c3ccccc3)N12` (configuration not stated): the TGI with HOP-62 NSCLC amounted to 25.6 µM; in the assay on 786-0 renal it was 18.3 µM; with NCI-H522 lung, 9.71 µM; in the assay on A549 NSCLC it was 19.1 µM; in the assay with SF-539 CNS, 20 µM; in the assay on RXF 393 renal, 17.4 µM. For the same compound, the TGI in the assay with LOX IMVI melanoma amounted to 4.96 µM; in the assay on TK-10 renal it was 18.1 µM.

Consider `COc1ccc2ccc3c(c2c1)CN1CCc2cc(OC)c(OC)cc2C1C3` (configuration not stated), for which the TGI with OVCAR-4 ovarian, in the assay on HOP-62 NSCLC, in the assay with 786-0 renal, in the assay with NCI-H522 lung, with SF-539 CNS and in the assay on LOX IMVI melanoma was more than 100 µM throughout. This compound registered a TGI in the assay with TK-10 renal of more than 100 µM.

Regarding `CCOc1ccc2c(c1)[n+]([O-])c(S(=O)(=O)c1ccc(C)cc1)c(N)[n+]2[O-]`, the TGI in the assay with OVCAR-4 ovarian, in the assay on HOP-62 NSCLC, in the assay with 786-0 renal, in the assay on NCI-H522 lung, in the assay on A549 NSCLC and in the assay on SF-539 CNS was more than 100 µM in each case. This compound also displayed a TGI in the assay with TK-10 renal of more than 100 µM.

Consider `Clc1ccc(C2N3CCCCC3[C@@H]3c4[nH]c5ccccc5c4CCN23)cc1` (some centres not stated), for which the TGI with OVCAR-4 ovarian was more than 100 µM; in the assay with HOP-62 NSCLC it was more than 100 µM; with 786-0 renal it was more than 100 µM; with A549 NSCLC, more than 100 µM; in the assay on SF-539 CNS, more than 100 µM; in the assay on RXF 393 renal, 78.7 µM. Also, the TGI in the assay with TK-10 renal is more than 100 µM.

Consider `O=C1C=CC(=Nc2ccc3c(c2)C(Br)c2ccccc2-3)O1` (configuration not stated), for which the TGI is more than 100 µM with HOP-62 NSCLC; more than 100 µM in the assay with 786-0 renal; 81.7 µM in the assay with NCI-H522 lung; more than 100 µM in the assay on A549 NSCLC; more than 100 µM with SF-539 CNS; more than 100 µM with RXF 393 renal. In addition, the TGI in the assay with LOX IMVI melanoma and with TK-10 renal was more than 100 µM each time.
